Results from the NIST ThermoML archive (doi:10.1021/je100177u).
Numbers after ± are expanded uncertainties.

conditions: 298.15 K, Drop volume

Structure (SMILES) | surface tension liquid-gas [mN/m]
CCCCCl [1-chlorobutane] | 23.29 ± 0.18
CC(C)(C)O [2-methylpropan-2-ol] | 20.3 ± 0.14
CC(C)CO [2-methyl-1-propanol] | 22.47 ± 0.15
CCCCO [butan-1-ol] | 24.25 ± 0.15

Second part, the compound after the results:

surface tension liquid-gas [mN/m] | Structure (SMILES)
18.06 ± 0.16 | CCCCCC [hexane]
23.08 ± 0.18 | CCC(C)O (configuration not stated) [butan-2-ol]

same assay, conditions: 298.15 K; 101.33 kPa; Liquid

Structure (SMILES) | mass density [kg/m3]
CCCCCl [1-chlorobutane] | 880.69 ± 0.61
CC(C)(C)O [2-methylpropan-2-ol] | 780.78 ± 0.65
CC(C)CO [2-methyl-1-propanol] | 797.77 ± 0.62
CCCCO [butan-1-ol] | 805.8 ± 0.29

Continued, values first:

mass density [kg/m3] | Structure (SMILES)
655.07 ± 0.98 | CCCCCC [hexane]
802.44 ± 0.73 | CCC(C)O (configuration not stated) [butan-2-ol]
